Laboratory results: US20260262643A1, “HERBICIDAL BENZOXAZINES” (FMC CORPORATION, priority 2022, published 2026)

Experiments:
blackgrass [1] = assay: Test A preemergence; type: in vivo, Alopecurus myosuroides
Outline: (§1)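 Seeds in loam–sand blend received a directed preemergence soil spray of compound in non-phytotoxic solvent with surfactant; postemergence plants (2–10 cm, one- to two-leaf stage) were sprayed with the same formulation. After 10 days in greenhouse, injury was rated visually versus untreated controls, 0 (no effect) to 100 (complete control).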

corn [2] = assay: Test A preemergence; type: in vivo, Zea mays
Outline: as §1

foxtail, giant [3] = assay: Test A preemergence; type: in vivo, Setaria faberi
Outline: as §1

goosegrass [4] = assay: Test A preemergence; type: in vivo, Eleusine indica
Outline: as §1

kochia [5] = assay: Test A preemergence; type: in vivo, Bassia scoparia
Outline: as §1

oat, wild [6] = assay: Test A preemergence; type: in vivo, Avena fatua
Outline: as §1

pigweed, palmer [7] = assay: Test A preemergence; type: in vivo, Amaranthus palmeri
Outline: as §1

ragweed [8] = assay: Test A preemergence; type: in vivo, Ambrosia artemisiifolia
Outline: as §1

ryegrass, Italian [9] = assay: Test A preemergence; type: in vivo, Lolium multiflorum
Outline: as §1

soybean [10] = assay: Test A preemergence; type: in vivo, Glycine max
Outline: as §1

wheat [11] = assay: Test A preemergence; type: in vivo, Triticum aestivum
Outline: as §1

blackgrass [12] = assay: Test A postemergence; type: in vivo, Alopecurus myosuroides; conditions: postemergence, 10 days
Outline: as §1

corn [13] = assay: Test A postemergence; type: in vivo, Zea mays; conditions: postemergence, 10 days
Outline: as §1

foxtail, giant [14] = assay: Test A postemergence; type: in vivo, Setaria faberi; conditions: postemergence, 10 days
Outline: as §1

goosegrass [15] = assay: Test A postemergence; type: in vivo, Eleusine indica; conditions: postemergence, 10 days
Outline: as §1

kochia [16] = assay: Test A postemergence; type: in vivo, Bassia scoparia; conditions: postemergence, 10 days
Outline: as §1

oat, wild [17] = assay: Test A postemergence; type: in vivo, Avena fatua; conditions: postemergence, 10 days
Outline: as §1

pigweed, palmer [18] = assay: Test A postemergence; type: in vivo, Amaranthus palmeri; conditions: postemergence, 10 days
Outline: as §1

ragweed [19] = assay: Test A postemergence; type: in vivo, Ambrosia artemisiifolia; conditions: postemergence, 10 days
Outline: as §1

ryegrass, Italian [20] = assay: Test A postemergence; type: in vivo, Lolium multiflorum; conditions: postemergence, 10 days
Outline: as §1

soybean [21] = assay: Test A postemergence; type: in vivo, Glycine max; conditions: postemergence, 10 days
Outline: as §1

wheat [22] = assay: Test A postemergence; type: in vivo, Triticum aestivum; conditions: postemergence, 10 days
Outline: as §1

horseweed = assay: Test A postemergence; type: in vivo, Erigeron canadensis; conditions: postemergence, 10 days
Outline: as §1

barnyardgrass = assay: Test B flooded paddy test; type: in vivo, Echinochloa crus-galli; conditions: 250 g ai/ha, Flood, 13 days, 0 to 100 scale (0 no effect, 100 complete control)
Outline: (§2)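 Compound is introduced into paddy water covering soil by 3 cm, treating plants that have reached two leaves. Pots are kept flooded at that depth under greenhouse conditions. Assessment at 13 days gives a 0–100 visual control score.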

ducksalad = assay: Test B flooded paddy test; type: in vivo, Heteranthera limosa; conditions: 250 g ai/ha, Flood, 13 days, 0 to 100 scale (0 no effect, 100 complete control)
Outline: as §2

rice = assay: Test B flooded paddy test; type: in vivo, Oryza sativa; conditions: 250 g ai/ha, Flood, 13 days, 0 to 100 scale (0 no effect, 100 complete control)
Outline: as §2

sedge, umbrella = assay: Test B flooded paddy test; type: in vivo, Cyperus difformis; conditions: 250 g ai/ha, Flood, 13 days, 0 to 100 scale (0 no effect, 100 complete control)
Outline: as §2

[23] = 125 g ai/ha, visual injury after 10 days, 0 to 100 scale, 0 is no effect, 100 is complete control
[24] = 500 g ai/ha, 0 to 100 scale (0 no effect, 100 complete control), 10 days
[25] = 125 g ai/ha, 0 to 100 scale, 0 no effect, 100 complete control
[26] = 500 g ai/ha, visual injury, 0 to 100 scale (0 no effect, 100 complete control)

Cc1cccc2c1O[C@@H](C)CN2C(=O)c1cccc(-n2cnc(C3CCCCC3)n2)c1 [Compound 82]
Plant response rating, Blackgrass (blackgrass [1]; [23]): 0 | Plant response rating, Blackgrass (blackgrass [1]; [24]): 0 | Plant response rating, Corn (corn [2]; [23]): 0 | Plant response rating, Corn (corn [2]; [24]): 10 | Plant response rating, Foxtail, Giant (foxtail, giant [3]; [23]): 0 | Plant response rating, Foxtail, Giant (foxtail, giant [3]; [24]): 20 | Plant response rating, Goosegrass (goosegrass [4]; [23]): 20 | Plant response rating, Goosegrass (goosegrass [4]; [24]): 90 | Plant response rating, Kochia (kochia [5]; [23]): 0 | Plant response rating, Kochia (kochia [5]; [24]): 0 | Plant response rating, Oat, Wild (oat, wild [6]; [23]): 10 | Plant response rating, Oat, Wild (oat, wild [6]; [24]): 20 | Plant response rating, Pigweed, Palmer (pigweed, palmer [7]; [23]): 0 | Plant response rating, Pigweed, Palmer (pigweed, palmer [7]; [24]): 40 | Plant response rating, Ragweed (ragweed [8]; [23]): 0 | Plant response rating, Ragweed (ragweed [8]; [24]): 0 | Plant response rating, Ryegrass, Italian (ryegrass, Italian [9]; [23]): 60 | Plant response rating, Ryegrass, Italian (ryegrass, Italian [9]; [24]): 100 | Plant response rating, Soybean (soybean [10]; [23]): 0 | Plant response rating, Soybean (soybean [10]; [24]): 0 | Plant response rating, Wheat (wheat [11]; [23]): 0 | Plant response rating, Wheat (wheat [11]; [24]): 0 | Blackgrass plant response rating (blackgrass [12]; [25]): 0 | Plant response rating, Blackgrass (blackgrass [12]; [26]): 10 | Corn plant response rating (corn [13]; [25]): 0 | Plant response rating, Corn (corn [13]; [26]): 10 | Foxtail, Giant plant response rating (foxtail, giant [14]; [25]): 10 | Plant response rating, Foxtail, Giant (foxtail, giant [14]; [26]): 10 | Goosegrass plant response rating (goosegrass [15]; [25]): 0 | Plant response rating, Goosegrass (goosegrass [15]; [26]): 20 | Kochia plant response rating (kochia [16]; [25]): 70 | Plant response rating, Kochia (kochia [16]; [26]): 80 | Oat, Wild plant response rating (oat, wild [17]; [25]): 0 | Plant response rating, Oat, Wild (oat, wild [17]; [26]): 0 | Pigweed, Palmer plant response rating (pigweed, palmer [18]; [25]): 0 | Plant response rating, Pigweed, Palmer (pigweed, palmer [18]; [26]): 50 | Ragweed plant response rating (ragweed [19]; [25]): 0 | Plant response rating, Ragweed (ragweed [19]; [26]): 50 | Ryegrass, Italian plant response rating (ryegrass, Italian [20]; [25]): 0 | Plant response rating, Ryegrass, Italian (ryegrass, Italian [20]; [26]): 30 | Soybean plant response rating (soybean [21]; [25]): 90 | Plant response rating, Soybean (soybean [21]; [26]): 90 | Wheat plant response rating (wheat [22]; [25]): 10 | Plant response rating, Wheat (wheat [22]; [26]): 10 | Horseweed plant response rating (horseweed; [25]): 0 | Plant response rating, Horseweed (horseweed; [26]): 0 | Plant response rating, Barnyardgrass (barnyardgrass): 0 | Plant response rating, Ducksalad (ducksalad): 0 | Plant response rating, Rice (rice): 0 | Plant response rating, Sedge, Umbrella (sedge, umbrella): 0
